Source: patent US20160068902A1, “SEQUENCING NUCLEIC ACIDS BY ENZYME ACTIVATION” (CAERUS MOLECULAR DIAGNOSTICS, priority 2013, published 2016)

Tested on: maltose binding protein/lactamase enzyme (switch enzyme)
Assay: Lactamase switch enzyme activity monitored with chromogenic substrate nitrocefin
Type: biochemical
Conditions: for activation of the switch protein: without dephosphorylation; for activation of the switch protein / activation of the switch protein after dephosphorylation: FIG. 4E; for activation of the switch protein after dephosphorylation: dephosphorylated with shrimp alkaline phosphatase
Text: A maltose with the 1′ hydroxyl attached to the terminal phosphate of a dNTP should not bind effectively to the switch and so should not activate the maltose binding protein/lactamase enzyme^12. The conjugated maltose/dNTP can be used to detect incorporation of dNTP during a cycle of sequencing by synthesis: the enzyme is only activated after incorporation of a dNTP released phospho-maltose which is then be dephosphorylated to yield the maltose activator. […] Maltose monohydrate (1.44 g) was dissolved in 1 ml of water titrated to pH 12.5 by addition of NaOH and heated to 80° C. Trisodium trimetaphosphate (0.31 g) was added and the mixture reacted at room temperature for 25 hours. The maltose-triphosphate product was purified by anion exchange chromatography on a Dowex 1-X2 resin and eluted with 300 mM KCl.
The switch protein was expressed and purified as previously described^21 and enzyme activity was monitored using the chromogenic substrate nitrocefin. […] Addition of maltose increased the enzyme activity more than 210-fold.

| Compound | increase of enzyme activity on addition of maltose (10 nM switch enzyme, nitrocefin hydrolysis, FIG. 4A) | Lactamase switch hydrolyses nitrocefin faster after maltose addition (FIG. 4(A) legend) [times] | activation of the switch protein | activation of the switch protein after dephosphorylation | activation of the switch protein after dephosphorylation (listed as Maltose triphosphate) |
| --- | --- | --- | --- | --- | --- |
| OC[C@H]1O[C@H](O[C@H]2[C@H](O)[C@@H](O)C(O)O[C@@H]2CO)[C@H](O)[C@@H](O)[C@@H]1O (mixture of isomers) [maltose] | more than 210 fold | 210 | activates the protein |  |  |
| maltose triphosphate |  |  | no appreciable activation | activation levels similar to that of maltose | significant activation of the lactamase switch only upon dephosphorylation |
